# What was measured:
# [1] = test system: simple herpes of type 1 (HSV1); test: Antiviral activity in vitro, test 1 (titer after 2 h incubation), HSV1; type: cell-based, HSV1 (cultured on VERO cell line); conditions: control 10^5
# [2] = test system: simple herpes of type 2 (HSV2); test: Antiviral activity in vitro, test 1 (titer after 2 h incubation), HSV2; type: cell-based, HSV2 (cultured on VERO cell line); conditions: control 10^4
# [3] = test system: simple herpes of type 1 (HSV1); test: Antiviral activity in vitro, test 2 (viral production after 4 days), HSV1; type: cell-based, HSV1 (cultured on VERO cell line); conditions: for Number of viral particles/0.025 ml supernatant, Test 2 HSV1: control 2 × 10^8
# [4] = test system: simple herpes of type 2 (HSV2); test: Antiviral activity in vitro, test 2 (viral production after 4 days), HSV2; type: cell-based, HSV2 (cultured on VERO cell line); conditions: for Number of viral particles/0.025 ml supernatant, Test 2 HSV2: control 10^7
# DNA = test: Degradation of DNA caused by free radicals
# Chemical stability = type: physicochemical
# [5] = Brieskorn and Domling 1969; cited from earlier work
# [6] = test system: certain microorganisms responsible for dental caries and bad breath; conditions: CA 97, 84835q; cited from earlier work
smiles,measurement,setting,value
CC(C)c1cc2c(c(O)c1O)[C@@]1(C(=O)O)CCCC(C)(C)[C@@H]1CC2 [Carnosic acid],"Number of viral particles/0.025 ml supernatant, Test 1 HSV1",[1]; 0.62 μg/ml,10^4 viral particles/0.025 ml supernatant
same,"Number of viral particles/0.025 ml supernatant, Test 1 HSV1",[1]; 1.25 μg/ml,10^3 viral particles/0.025 ml supernatant
same,"Number of viral particles/0.025 ml supernatant, Test 1 HSV1",[1]; 2.5 μg/ml,10 viral particles/0.025 ml supernatant
same,"Number of viral particles/0.025 ml supernatant, Test 1 HSV1",[1]; 5 μg/ml,10 viral particles/0.025 ml supernatant
same,"Number of viral particles/0.025 ml supernatant, Test 1 HSV2",[2]; 0.62 μg/ml,10 viral particles/0.025 ml supernatant
same,"Number of viral particles/0.025 ml supernatant, Test 1 HSV2",[2]; 1.25 μg/ml,10 viral particles/0.025 ml supernatant
same,"Number of viral particles/0.025 ml supernatant, Test 1 HSV2",[2]; 2.5 μg/ml,10 viral particles/0.025 ml supernatant
same,"Number of viral particles/0.025 ml supernatant, Test 1 HSV2",[2]; 5 μg/ml,10 viral particles/0.025 ml supernatant
same,"Number of viral particles/0.025 ml supernatant, Test 2 HSV1",[3]; 0.62 μg/ml,6 × 10^6 viral particles/0.025 ml supernatant
same,"Number of viral particles/0.025 ml supernatant, Test 2 HSV1",[3]; 1.25 μg/ml,2.5 × 10^6 viral particles/0.025 ml supernatant
same,"Number of viral particles/0.025 ml supernatant, Test 2 HSV1",[3]; 2.5 μg/ml,10^5 viral particles/0.025 ml supernatant
same,"Number of viral particles/0.025 ml supernatant, Test 2 HSV1",[3]; 5 μg/ml,10^2 viral particles/0.025 ml supernatant
same,production of HSV1,[3]; test 2,greatly affected
same,"Number of viral particles/0.025 ml supernatant, Test 2 HSV2",[4]; 0.62 μg/ml,8 × 10^5 viral particles/0.025 ml supernatant
same,"Number of viral particles/0.025 ml supernatant, Test 2 HSV2",[4]; 1.25 μg/ml,10^5 viral particles/0.025 ml supernatant
same,"Number of viral particles/0.025 ml supernatant, Test 2 HSV2",[4]; 2.5 μg/ml,2 × 10^2 viral particles/0.025 ml supernatant
same,"Number of viral particles/0.025 ml supernatant, Test 2 HSV2",[4]; 5 μg/ml,< 10 viral particles/0.025 ml supernatant
same,production of HSV2,[4]; test 2,greatly affected
same,effect on the degradation of DNA caused by the free radicals,DNA,inhibiting effect
same,sensitivity to oxidation,Chemical stability; like any catechol-type molecule,highly sensitive to oxidation
same,"stability, purified and crystallized form",Chemical stability; purified and crystallized form,stable
same,cell toxicity,VERO cell line,absence of cell toxicity
same,antioxidant activity,[5],powerful antioxidant
same,antibiotic activity against microorganisms responsible for dental caries and bad breath,[6],against certain microorganisms responsible for dental caries and bad breath
